From patent US5385932A, “HMG-COA reductase inhibitor metabolites” (Merck & Co., Inc., priority 1992, dated 1995) come the findings set out here.

The target of series [1] is T1, HMG--CoA reductase (Rattus norvegicus, UniProt P51639).
T1 construct: from tissue
T1 sequence (P51639 1-887): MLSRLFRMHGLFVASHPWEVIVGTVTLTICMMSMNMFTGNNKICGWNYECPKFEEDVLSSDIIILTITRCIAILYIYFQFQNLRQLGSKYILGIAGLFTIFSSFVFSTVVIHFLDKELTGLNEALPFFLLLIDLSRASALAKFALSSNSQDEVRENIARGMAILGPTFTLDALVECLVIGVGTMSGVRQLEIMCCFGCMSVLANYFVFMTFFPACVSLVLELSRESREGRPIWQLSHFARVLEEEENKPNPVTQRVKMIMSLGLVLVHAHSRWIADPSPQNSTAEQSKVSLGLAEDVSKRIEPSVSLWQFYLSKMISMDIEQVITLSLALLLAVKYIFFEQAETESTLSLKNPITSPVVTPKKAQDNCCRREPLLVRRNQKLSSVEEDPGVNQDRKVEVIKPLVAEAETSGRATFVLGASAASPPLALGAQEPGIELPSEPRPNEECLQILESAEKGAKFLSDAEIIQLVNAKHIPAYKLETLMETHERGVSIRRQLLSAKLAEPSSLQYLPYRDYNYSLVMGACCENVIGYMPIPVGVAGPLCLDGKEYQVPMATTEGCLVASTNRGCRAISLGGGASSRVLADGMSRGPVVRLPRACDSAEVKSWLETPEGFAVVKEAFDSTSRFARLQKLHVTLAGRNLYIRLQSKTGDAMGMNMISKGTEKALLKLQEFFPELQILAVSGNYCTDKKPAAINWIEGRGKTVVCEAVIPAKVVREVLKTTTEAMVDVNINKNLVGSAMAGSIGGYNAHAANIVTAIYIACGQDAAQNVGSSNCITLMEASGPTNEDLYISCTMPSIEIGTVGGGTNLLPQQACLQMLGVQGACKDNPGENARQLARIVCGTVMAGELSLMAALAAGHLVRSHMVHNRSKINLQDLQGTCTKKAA
Description: intrinsic HMG-CoA reductase inhibition, in vitro protocol after alkaline hydrolysis of the lactone ring. It counts as biochemical. The note with it: relative inhibitory potency from IC50 values; lactone ring opened by alkaline hydrolysis; lovastatin (hydroxy acid form) assigned 100. The protocol: After alkaline hydrolysis of the lactone ring the intrinsic HMG--CoA reductase inhibition activity was measured in an vitro protocol based on a method published in Proc. Natl. Acad. Sci. U.S.A. 77, 3957-3961 (1980).
The IC50 value of the test compound was compared with that of its parent determined simultaneously. For estimation of relative inhibitory potencies, lovastatin (in the form of its hydroxy acid) was assigned a value of 100.

A short description of series [2]: stability of the free dihydroxy acid on standing. It counts as physicochemical. Particulars: on standing at room temperature; acid form can be maintained by increasing the pH above 7.0. As to the method:
The sodium salt of the compound II from Example 4 is dissolved in 2 ml of ethanol-water (1:1; v:v) and added to 10 ml of 1N hydrochloric acid from which the dihydroxy acid is extracted with ethyl acetate. The organic extract is washed once with water, dried (Na2 SO4), and evaporated in vacuo with a bath temperature not exceeding 30° C. […] The dihydroxy acid form can be maintained by increasing the pH above 7.0.

A short description of series [3]: incubation of 14C-labelled compound with rat liver microsomes, HPLC analysis of the label. Particulars: rat liver microsomes with NADPH and MgCl2, pH 7.4, 37°. It counts as in vitro ADME. As to the method:
Rat liver tissue (55.6 g) was homogenized in 0.05M Tris -1.15% KCl buffer at pH 7.5 (100 ml). The homogenates were centrifuged at 10,000 RPM for 20 '. The supernatants were filtered through glass wool and then centrifuged as 100,000 g for 90'. After the supernatant was discarded the pellet was suspended in 10 mM EDTA -1.15% KCl (100 ml) and recentrifuged at 100,000 g for 90 minutes. The supernatant was discarded and the pellet was resuspended in 0.25M sucrose (15 ml). Microsomes were stored at -80° under N2. Protein concentration (as determined by Biuret reaction) was 40 mg/ml of final suspension.
[^14 C] 6(R)-[2-[8(S)-(2,2-dimethylbutyryloxy)-2(S)-methyl-5(R)-hydroxy-6(S)-methyl-1,2,3,4, 4a(R),5,6,7,8,Sa(R)-decahydronaphthyl-1(S)]ethyl]-4(R)-hydroxy-3,4,5,6,-tetrahydro-2H-pyran-2-one (compound A)(40 μg) in 20 λ of DMSO was placed in a tube with rat liver microsomes (1 mg in 100 μl of broth) Mg Cl2 (30 μl of a 0.1M solution), NADPH (50 μl of a 0.01M solution) and phosphate buffer (100 λ of a.1M solution, pH 7.4).
Twenty five such tubes were incubated at 37° in a water bath, for 30 minutes. Acetone (1 ml) was added to each tube, followed by ethyl acetate (5 ml). The ethyl acetate was evaporated and the residue was reconstituted in methanol and fractionated by HPLC. […]

With `CCC(C)(C)C(=O)O[C@H]1C[C@](C)(O)C[C@@H]2CC[C@H](C)[C@H](CC[C@@H]3C[C@@H](O)CC(=O)O3)[C@H]21` [6(R)-[2-[8(S)-(2,2-dimethylbutyryloxy)-2(S),6(R)-dimethyl-6(R)-hydroxy-1,2,3,4,4a (R),5,6,7,8,8a (R)-decahydronaphthyl-1(S)]ethyl]-4(R)-hydroxy-3,4,5,6-tetrahydro-2H-pyran-2-one], in series [1], the “Potency (Relative to Lovastatin = 100)” value was found to be 2. For `CCC(C)(C)C(=O)O[C@H]1C[C@](C)(O)[C@@H](O)[C@@H]2CC[C@H](C)[C@H](CC[C@@H]3C[C@@H](O)CC(=O)O3)[C@H]21` [6(R)-[2-[8(S)-(2,2-dimethylbutyryloxy)-2(S)-methyl-5(S),6(S)-dihydroxy-6(S)-methyl-1,2,3,4, 4a (R),5,6,7,8,8a (R)-decahydronaphthyl-1(S)]ethyl]-4(R)-hydroxy-3,4,5,6-tetrahydro-2H-pyran-2-one], the “Potency (Relative to Lovastatin = 100)” value in series [1] is reported as 40.

As for `CCC(C)(C)C(=O)O[C@H]1C[C@](C)(O)[C@@H](O)[C@@H]2CC[C@H](C)[C@H](CC[C@@H](O)C[C@@H](O)CC(=O)O)[C@H]21` [Example 10], in series [2], the “stability of dihydroxy acid form (reversion to lactone)” value is “slowly reverts to the corresponding parent lactone”. Consider `CCC(C)(C)C(=O)O[C@H]1C[C@@H](C)[C@@H](O)[C@@H]2CC[C@H](C)[C@H](CC[C@@H]3C[C@@H](O)CC(=O)O3)[C@H]21` [compound A, 6(R)-[2-[8(S)-(2,2-dimethylbutyryloxy)-2(S)-methyl-5(R)-hydroxy-6(S)-methyl-1,2,3,4, 4a(R),5,6,7,8,Sa(R)-decahydronaphthyl-1(S)]ethyl]-4(R)-hydroxy-3,4,5,6,-tetrahydro-2H-pyran-2-one], for which the remaining at 0.5 h in series [3] (30 minutes, ethyl acetate extract, read-out: label representing unchanged starting material) turned out to be 52%.

For the molecule `CCC(C)(C)C(=O)O[C@H]1C[C@@H](C)C[C@@H]2CC[C@H](C)[C@H](CC[C@@H]3C[C@@H](O)CC(=O)O3)[C@H]21` [compound B, 6(R)-[2-[8(S)-(2,2-dimethylbutyryloxy)-2(S),6(R)-dimethyl-1,2,3,4,4a(R),5,6,7,8, 8a(R)-decahydronaphthyl-1(S)]ethyl]-4(R)-hydroxy-3,4,5,6-tetrahydro-2H-pyran-2-one], the remaining at 1 h in series [3] (60 minutes, methyl-t.butyl ether extract, read-out: label in the extract that was unchanged starting material) came out at 66%.
